This is an account of results in patent US7199100B2, “Cyclic peptides, method for preparing and use as angiogenesis inhibitors or activator” (Commissariat a l'Energie Atomique, priority 2000, dated 2007).

Where two headings read alike, the source gives them in different places. Square brackets hold non-standard residues; d marks the D form. Peptide text beside a SMILES is read from it.

For one assay, the target named is T1, KDR receptor (VEGFR2) (Homo sapiens, UniProt P35968).
T1 construct: expressed in transfected cells; host or cells: heparan sulfate deficient Chinese hamster ovary cells (CHOm VEGFR2), VEGFR2 cDNA in psV-7d vector
T1 sequence (P35968 20-1356, species assumed): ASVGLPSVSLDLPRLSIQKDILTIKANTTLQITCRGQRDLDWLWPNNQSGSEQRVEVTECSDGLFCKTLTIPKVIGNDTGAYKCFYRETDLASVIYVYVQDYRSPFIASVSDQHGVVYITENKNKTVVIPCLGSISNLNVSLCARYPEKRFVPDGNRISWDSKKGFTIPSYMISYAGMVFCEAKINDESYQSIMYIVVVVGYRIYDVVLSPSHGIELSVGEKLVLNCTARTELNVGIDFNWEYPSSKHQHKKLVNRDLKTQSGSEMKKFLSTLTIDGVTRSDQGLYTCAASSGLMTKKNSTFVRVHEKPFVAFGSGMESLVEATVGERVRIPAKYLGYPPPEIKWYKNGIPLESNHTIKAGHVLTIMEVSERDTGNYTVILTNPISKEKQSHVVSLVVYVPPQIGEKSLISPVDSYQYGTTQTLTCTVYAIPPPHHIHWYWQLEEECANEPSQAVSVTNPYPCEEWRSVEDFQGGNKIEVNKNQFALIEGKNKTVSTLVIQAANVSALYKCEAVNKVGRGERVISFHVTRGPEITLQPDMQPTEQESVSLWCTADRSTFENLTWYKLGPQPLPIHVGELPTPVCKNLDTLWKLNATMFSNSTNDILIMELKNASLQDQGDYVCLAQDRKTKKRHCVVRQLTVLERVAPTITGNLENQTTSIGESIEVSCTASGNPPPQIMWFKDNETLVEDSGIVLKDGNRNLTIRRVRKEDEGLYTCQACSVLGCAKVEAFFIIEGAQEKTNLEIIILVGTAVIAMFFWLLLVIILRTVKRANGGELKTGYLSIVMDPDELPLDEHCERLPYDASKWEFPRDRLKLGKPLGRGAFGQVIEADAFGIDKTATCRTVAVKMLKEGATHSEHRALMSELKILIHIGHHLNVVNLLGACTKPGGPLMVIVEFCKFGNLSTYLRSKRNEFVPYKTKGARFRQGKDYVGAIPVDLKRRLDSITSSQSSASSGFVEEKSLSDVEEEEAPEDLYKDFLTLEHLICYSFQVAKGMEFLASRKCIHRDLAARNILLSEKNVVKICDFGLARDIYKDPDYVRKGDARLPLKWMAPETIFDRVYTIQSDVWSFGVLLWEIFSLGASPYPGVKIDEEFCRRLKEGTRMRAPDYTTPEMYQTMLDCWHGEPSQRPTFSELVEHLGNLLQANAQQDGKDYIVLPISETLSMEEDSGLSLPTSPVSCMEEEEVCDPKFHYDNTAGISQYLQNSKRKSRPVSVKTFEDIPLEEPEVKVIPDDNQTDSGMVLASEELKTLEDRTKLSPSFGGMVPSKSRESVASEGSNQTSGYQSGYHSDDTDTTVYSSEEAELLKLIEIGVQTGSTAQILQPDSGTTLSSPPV
Description: Inhibition of 125I-VEGF binding to KDR receptor on CHOm VEGFR2 cells. As for the experimental part: The P1 to P24 peptides are tested as concerns their property of inhibition of the binding of VEGF to its KDR receptor.
For these tests, heparin sulfate deficient Chinese hamster ovarian cells that are transfected with an expression vector containing VEGFR2cDnA (CHOm VEGFR2 cells) are used.
The CHOm VEGFR2 cells are routinely cultured in Dulbecco modified Eagle medium and supplemented with 10% (v/v) fetal calf serum (FCS), 50 U/ml penicillin, 50 μg/ml streptomycin, 1 mg/ml glucose and 2 mM L-glutamine at 37° C. in a 5% CO2 atmosphere.
The subconfluent flasks are transferred at 4° C. […] At the end of the incubation period, the cells are washed 3 times using iced PBS and solubized in 1 mL of buffer with 2% Triton X 100, 10% glycol, 1 mg/mL bovine serum albumin BSA. The radioactivity rate bound to the cells is counted in an MR-250 Kontron gamma counter. […] Specific binding is calculated by subtracting non-specific binding from total binding.
These assays are continued using the cyclopeptides of interest and two linear peptides as controls for an inhibition analysis as a function of dose.

Assay [1] deals with endothelial cells. Description: VEGF-stimulated endothelial cell proliferation (cell count). It is filed as cell-based. As to conditions: 10 ng/mL of VEGF.
Description: Cellular proliferation is measured by cell count. 7,000 endothelial cells are placed in the wells of 24-well plates (Costar) in DMEM medium containing newborn bovine serum. […] Two days later, the cells area once again stimulated by VEGF in the presence or absence of different concentrations of peptide. At the fifth day, the cells are trypsinized and counted using a Coulter counter.
Assay [2] deals with endothelial cells. Description: VEGF-stimulated endothelial cell migration (monolayer denudation). It counts as cell-based. The settings on record: 10 ng/mL VEGF.
Description: Cellular migration is measured according to the method described by Sato and Rifkin (J. Cell Biol., September, 1988, (107 (3): 1199–205) [17] with modifications. 100,000 endothelial cells are placed in 35 mm culture flasks in DMEM medium containing 10% fetal calf serum. On confluence, the medium is replaced by DMEM medium without serum and the cells are incubated overnight. On the next day, denudation is done artificially in the monolayer using a sterile pipette tip. A series of digital photographs is taken and the border of denudation is marked by a line using the BiocomVisionLab2000 program. The flasks are then rinsed and incubated with 10 ng/mL VEGF in the presence or absence of peptide. After 18 hours of incubation a new series of photographs is taken and the before and after stimulation images are superimposed. The cells situated beyond the border of denudation are counted.
A further assay has as its system ERK2 (p42). Nature of the assay: VEGF-induced phosphorylation of ERK2 (p42), Western blot, capillary endothelial cells. It is filed as cell-based. The settings on record: p42 and p44 together, 10 ng/mL of VEGF. As for the experimental part:
Phosphorylation of ERK1 (p44) and ERK2 (p42) is measured by Western blot using anti p42/p44 antibodies (New England Biolabs). The capillary endothelial cells are cultivated in DMEM containing 10% newborn bovine serum. Subconfluent cultures are then deprived of serum over a period of 24 hours. The peptides are then added at specific concentrations over 5 minutes to the cells in the presence or absence of 10 ng/mL of VEGF. The cells are then removed from the culture flasks and lysed for 20 minutes over ice in lysis buffer containing […], pH 7.4, 75 mM NaCl, 1 mM EDTA, 1% Nonidet P-40 and 0.01% of SDS. The insoluble material is removed by centrifugation and 50 μg/mL of protein extract are separated by polyacrylamide gel electrophoresis containing sodium dodecyl sulfate (SDS) under denaturing conditions. The proteins are then transferred from the gel onto a nitrocellulose membrane (Amersham Pharmacia Biotech, Orsay) using a transfer apparatus (semi-dry transfer, Bio-Rad, Irvy-sur-Seine, France). […] The results are quantified using the Image Quant program (Molecular Dynamics).
The assays were done as indicated. […] The degree of phosphorylation is estimated after quantification of the signals obtained using autoradiographic films and the results are expressed in percent inhibition relative to the signal obtained using 10 ng/mL of VEGF alone.

As for `CC[C@H](C)[C@@H]1NC(=O)[C@H](Cc2c[nH]cn2)NC(=O)[C@H](CCC(N)=O)NC(=O)CNC(=O)[C@H](CCC(N)=O)NC(=O)[C@H](Cc2c[nH]cn2)NC(=O)[C@@H]2CCCN2C(=O)[C@H](CCCCN)NC(=O)[C@H]([C@@H](C)CC)NC(=O)[C@H](CCCNC(=N)N)NC(=O)[C@H](CCSC)NC(=O)[C@H]([C@@H](C)CC)NC(=O)[C@H](CCC(N)=O)NC(=O)[C@@H]2CCCN2C(=O)[C@@H](Cc2ccccc2)NC(=O)[C@H](CCC(=O)O)NC(=O)CNC1=O` [Peptide P11] (cyclo([dF]PQIMRIKPHQGQHIGE)), the “inhibiting binding of VEGF to the KDR receptor (in words)” value on KDR receptor (VEGFR2) (CHOm VEGFR2 cells, 125I-VEGF) was “very effective”. Moreover, the “inhibition of cellular proliferation (in words)” value in the assay with endothelial cells [1] is reported as “strong inhibition”. In addition, the “inhibition of cellular migration (in words)” value in the assay on endothelial cells [2] is on record as “strongly inhibits”. Also, the “inhibition of phosphorylation of p42/p44 (in words)” value in the assay with ERK2 (p42) is given as “strongly inhibits”.

As a reminder, the IC50 is the concentration at which inhibition is half-maximal. Lower therefore signals higher potency. Consider “H-RIKPH-OH [Peptide P1, H-Arg-Ile-Lys-Pro-His-OH]”, for which, on KDR receptor (VEGFR2) (CHOm VEGFR2 cells, 5 ng/mL 125I-VEGF, 2 hours at 4° C.), the IC50 was greater than 300 µM.

Consider “H-RIKPHQG-OH [Peptide P3, H-Arg-Ile-Lys-Pro-His-Gln-Gly-OH]”, for which, on KDR receptor (VEGFR2), the IC50 was greater than 300 µM.
